This passage reports IC50 results from patent publication US10703757B2, “Compounds and methods for CDK8 modulation and indications therefor” (Plexxikon Inc., priority 2016, dated 2020).

Structures are written as SMILES.

Experiment [1] relates to CDK8 (phosphorylation of STAT1 at serine 727 in A549 cells). In words: Cell based Phospho-STAT1 assay (IFNγ-stimulated A549 cells, AlphaLISA). The note with it: Homo sapiens, A549, A549 cells, phospho-STAT1 after IFNγ stimulation. In short, it runs like this: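 A549 cells given serial compound dilutions for 1 h at 37 °C, then stimulated with IFNγ at 10 ng/mL final for 30 min. Lysate STAT1 Ser727 phosphorylation measured by AlphaLISA; % inhibition vs stimulated/unstimulated DMSO controls, IC50 by nonlinear regression.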
(In general: Alpha assays give light when donor and acceptor beads are brought close together.)

Experiment [2] concerns CDK8 (TCF/LEF luciferase reporter in HCT116 cells). Put plainly: Cell based TCF/LEF reporter assay (HCT116+TCF/LEF luciferase). The note with it: Homo sapiens, HCT-116, 24 h. In short, it runs like this: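 HCT116 cells stably carrying a TCF/LEF-luciferase reporter (endogenous mutant β-catenin), seeded overnight, then exposed to serial compound dilutions for 24 h at 37 °C. Luminescence normalized to CellTiter-Fluor viability signal. % inhibition relative to DMSO and 10 uM CCT251545 controls, with IC50 from nonlinear regression.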
A general note: In a reporter assay the amount or activity of a reporter protein is the signal.

Consider `Cn1cc(-c2ccc(-c3cnn4cccc(C#CC(C)(C)C(=O)O)c34)cc2)cn1` [Compound P-0297, 2,2-dimethyl-4-(3-(4-(1-methyl-1H-pyrazol-4-yl)phenyl)pyrazolo[1,5-a]pyridin-4-yl)but-3-ynoic acid], for which the IC50 in experiment [1] was in the range of 100 to 1000 nM; in experiment [2], 0.1 to 100 nM.

Turning to `CC(C)(O)C#Cc1cccn2ncc(-c3ccc4nccn4c3)c12` [Compound P-0286, 4-(3-(imidazo[1,2-a]pyridin-6-yl)pyrazolo[1,5-a]pyridin-4-yl)-2-methylbut-3-yn-2-ol], the half-maximal inhibitory concentration (IC50) was in the range of 0.1 to 100 nM in experiment [1] and 100 to 1000 nM in experiment [2].

With `N#CC1CC=C(c2nccn3ncc(-c4ccc(-c5cnn(CC(=O)O)c5)c(F)c4)c23)CC1` (centres unmarked) [Compound P-0116, 2-(4-(4-(4-(4-cyanocyclohex-1-en-1-yl)pyrazolo[1,5-a]pyrazin-3-yl)-2-fluorophenyl)-1H-pyrazol-1-yl)acetic acid], the IC50 in experiment [1] and in experiment [2] was 100 to 1000 nM each time.

Take `Cc1nc2ccc(-c3cnn4cccc(C#CC(C)(C)O)c34)cc2s1` [Compound P-0215, 2-methyl-4-(3-(2-methylbenzo[d]thiazol-6-yl)pyrazolo[1,5-a]pyridin-4-yl)but-3-yn-2-ol]: the IC50 in experiment [1] and in experiment [2] was 100 to 1000 nM throughout.

As for `N#CC1CCN(c2c(-c3ccc(-n4ccnn4)cc3)cnc3[nH]ccc23)CC1` [Compound P-0220, 1-(5-(4-(1H-1,2,3-triazol-1-yl)phenyl)-1H-pyrrolo[2,3-b]pyridin-4-yl)piperidine-4-carbonitrile], the IC50 in experiment [1] and in experiment [2] was 0.1 to 100 nM each time.

With `CC(C)(O)Cn1cc(-c2ccc(-c3cnn4ccnc(C5=CCC(C#N)CC5)c34)cc2)cn1` (centres unmarked) [Compound P-0162, 4-(3-(4-(1-(2-hydroxy-2-methylpropyl)-1H-pyrazol-4-yl)phenyl)pyrazolo[1,5-a]pyrazin-4-yl)cyclohex-3-ene-1-carbonitrile], the IC50 in experiment [1] and in experiment [2] was 0.1 to 100 nM each time.

In the case of `Cn1cc(-c2ccc(-c3cnn4cccc(C5=CCC(C#N)CC5)c34)cc2)cn1` (centres unmarked) [Compound P-0452, 4-(3-(4-(1-methyl-1H-pyrazol-4-yl)phenyl)pyrazolo[1,5-a]pyridin-4-yl)cyclohex-3-ene-1-carbonitrile], the IC50 in experiment [1] and in experiment [2] was 0.1 to 100 nM throughout.

For `COc1ccc(-c2cnn3ccnc(C4=CCC(C#N)CC4)c23)cc1Cl` (centres unmarked) [Compound P-0041, 4-(3-(3-chloro-4-methoxyphenyl)pyrazolo[1,5-a]pyrazin-4-yl)cyclohex-3-ene-1-carbonitrile], the IC50 in experiment [1] and in experiment [2] was 0.1 to 100 nM in each case.

Turning to `N#CC1CC=C(c2nccn3ncc(-c4ccc(F)cc4)c23)CC1` (centres unmarked) [Compound P-0089, 4-(3-(4-fluorophenyl)pyrazolo[1,5-a]pyrazin-4-yl)cyclohex-3-ene-1-carbonitrile], the IC50 is 0.1 to 100 nM in experiment [1] and 100 to 1000 nM in experiment [2].

As for `N#CC1CC=C(c2c(-c3ccc4c(c3)NC(=O)C4)cnc3[nH]ccc23)CC1` (centres unmarked) [Compound P-0208, 4-(5-(2-oxoindolin-6-yl)-1H-pyrrolo[2,3-b]pyridin-4-yl)cyclohex-3-ene-1-carbonitrile], the half-inhibitory concentration (IC50) in experiment [1] and in experiment [2] was 0.1 to 100 nM each time.

On to `CC(C)(O)c1ccc(-c2cnn3ccnc(C4=CCC(C#N)CC4)c23)cc1` (centres unmarked) [Compound P-0040, 4-(3-(4-(2-hydroxypropan-2-yl)phenyl)pyrazolo[1,5-a]pyrazin-4-yl)cyclohex-3-ene-1-carbonitrile], for which the IC50 in experiment [1] and in experiment [2] was 0.1 to 100 nM throughout.

`COc1ncc(C#Cc2cnc3cccc(N4CCC(C#N)CC4)n23)cn1` [Compound P-0313, 1-(3-((2-methoxypyrimidin-5-yl)ethynyl)imidazo[1,2-a]pyridin-5-yl)piperidine-4-carbonitrile]: the IC50 in experiment [1] and in experiment [2] was 100 to 1000 nM each time.

For `Cn1ncc2cc(-c3cnn4cccc(C5CCC(C#N)CC5)c34)ccc21` (centres unmarked) [Compound P-0337, 4-(3-(1-methyl-1H-indazol-5-yl)pyrazolo[1,5-a]pyridin-4-yl)cyclohexane-1-carbonitrile], the IC50 in experiment [1] and in experiment [2] was 0.1 to 100 nM in each case.

As for `Cn1cc(-c2ccc(-c3cnn4cccc(C#CC(C)(C)NS(C)(=O)=O)c34)cc2)cn1` [Compound P-0308, N-(2-methyl-4-(3-(4-(1-methyl-1H-pyrazol-4-yl)phenyl)pyrazolo[1,5-a]pyridin-4-yl)but-3-yn-2-yl)methanesulfonamide], the IC50 in experiment [1] and in experiment [2] was 100 to 1000 nM in each case.

For `N#CC1CCN(c2c(-c3ccc(-c4cnn(CC(F)(F)F)c4)cc3)cnc3[nH]ccc23)CC1` [Compound P-0174, 1-(5-(4-(1-(2,2,2-trifluoroethyl)-1H-pyrazol-4-yl)phenyl)-1H-pyrrolo[2,3-b]pyridin-4-yl)piperidine-4-carbonitrile], the IC50 in experiment [1] and in experiment [2] was 0.1 to 100 nM each time.

Regarding `N#CC1CCC(c2cccn3ncc(-c4ccc5cc(C(=O)O)ccc5c4)c23)CC1` (centres unmarked) [Compound P-0193, 6-(4-(4-cyanocyclohexyl)pyrazolo[1,5-a]pyridin-3-yl)-2-naphthoic acid], the IC50 in experiment [1] fell in the range of 100 to 1000 nM; in experiment [2], 1000 to 10000 nM.

Turning to `CC(C)(O)Cn1ncc2cc(-c3cnn4ccnc(C5CCC(C#N)CC5)c34)ccc21` (centres unmarked) [Compound P-0062, (1s,4s)-4-(3-(1-(2-hydroxy-2-methylpropyl)-1H-indazol-5-yl)pyrazolo[1,5-a]pyrazin-4-yl)cyclohexane-1-carbonitrile], the IC50 in experiment [1] and in experiment [2] was 0.1 to 100 nM throughout.

`N#CC1CC=C(c2c(-c3ccc4c(c3)OCC(=O)N4)cnc3[nH]ccc23)CC1` (centres unmarked) [Compound P-0205, 4-(5-(3-oxo-3,4-dihydro-2H-benzo[b][1,4]oxazin-7-yl)-1H-pyrrolo[2,3-b]pyridin-4-yl)cyclohex-3-ene-1-carbonitrile]: the figures for the IC50 in experiment [1] and in experiment [2] were 100 to 1000 nM and 0.1 to 100 nM, respectively.

On to `Cn1cc(-c2ccc(-c3cnn4cccc(N5CCC(F)(C(N)=O)CC5)c34)cc2)cn1` [Compound P-0285, 4-fluoro-1-(3-(4-(1-methyl-1H-pyrazol-4-yl)phenyl)pyrazolo[1,5-a]pyridin-4-yl)piperidine-4-carboxamide], for which the IC50 in experiment [1] and in experiment [2] was 100 to 1000 nM throughout.

As for `N#CC1CC=C(c2nccn3ncc(-c4ccc(OCCN5CCOCC5)cc4)c23)CC1` (centres unmarked) [Compound P-0085, 4-(3-(4-(2-morpholinoethoxy)phenyl)pyrazolo [1,5-a]pyrazin-4-yl)cyclohex-3-ene-1-carbonitrile], the IC50 in experiment [1] and in experiment [2] was 0.1 to 100 nM each time.

Regarding `CCCS(=O)(=O)Nc1ccc2cc(-c3cnn4ccnc(C5CCC(C#N)CC5)c34)ccc2c1` (centres unmarked) [Compound P-0061, N-(6-(4-((1s,4s)-4-cyanocyclohexyl)pyrazolo[1,5-a]pyrazin-3-yl)naphthalen-2-yl)propane-1-sulfonamide], the IC50 in experiment [1] and in experiment [2] was 0.1 to 100 nM in each case.

Take `CS(=O)(=O)C1CCC(Oc2cccc3ncc(-c4ccc(-c5cnn(C(F)F)c5)cc4)n23)C1` (centres unmarked) [Compound P-0321, 3-(4-(1-(difluoromethyl)-1H-pyrazol-4-yl)phenyl)-5-((3-(methylsulfonyl)cyclopentyl)oxy) imidazo[1,2-a]pyridine]: the 50% inhibitory concentration (IC50) in experiment [1] and in experiment [2] was 1000 to 10000 nM in each case.

A word on the IC50: it is the concentration at which inhibition is half-maximal. A low value points to inhibition by little substance.
